Experimental data reported in patent US5648366A, “Substituted pyrrolidin-3-yl-alkyl-piperidines” (Merrell Pharmaceuticals Inc., priority 1995, dated 1997).

How the values were obtained:
NK1 receptor [1] = biological target: T1, NK1 receptor (Homo sapiens, UniProt P25103); assay: Antagonism of NK1 receptor mediated (SP-induced) phosphatidylinositol turnover in UC11 cells; type: cell-based
T1 construct: endogenous in cells; host or cells: UC11 cells
Description: (§1) ANTAGONISM OF NK1 AND NK2 RECEPTOR MEDIATED PHOSPHATID[…]
(§2) Tachykinin-mediated inositol phosphate accumulation was measured in UC11 or SKLKB82#3 cells in the presence and absence of NK1 or NK2 receptor antagonists, respectively. Tissues were incubated in Krebs-Henseleit buffer at 37° C. with 95% O2 -5% CO2 gassing. Tissues were then incubated with fresh buffer containing 100 μCi of myo-[2-^3 H(N)] inositol at 37° C. for 60 min with gentle gassing. After washing twice in 5 ml room temperature buffer containing 10 mM LiCl, tissues were incubated for 30 min at room temperature with a buffer change at 15 min. Buffer was removed and Krebs-Henseleit buffer (containing 40 μg/ml bacitracin, 4 μg/ml each of leupeptin and chymostatin, 0.1% bovine serum albumin and 10 mM each of thiorphan and LiCl) added. After 15 min, SP was added to UC11 cells or NKA to SKLKB82#3 cells at various concentrations to start the reaction. After incubation for 60 min at room temperature the reaction was terminated by addition of 930 μl chloroform: methanol (1:2 by volume) to each tube, followed by 310 μl chloroform and 310 μl doubly distilled water. Samples were vortexed, centrifuged, and 0.9 ml of the aqueous (top) phase removed and added to 2 ml ddH2 O. The mixture was vortexed and loaded onto a 50% Bio-Rad AG 1-X8 (formate form, 100-200 mesh) exchange column (Bio-Rad Laboratories, Hercules, Calif.). The columns were washed, in order, with: 1) 10 ml doubly distilled water, 2) 5 ml of 5 mM disodium tetraborate/60 mM sodium formate, and 3) 5 ml of 1M ammonium formate/0.1M formic acid. The third elution was collected and 1 ml counted in 7 ml scintillation fluid. A 50 μl aliquot of the organic (bottom) phase was removed, dried in a scintillation vial and counted in 7 ml scintillation fluid.
(§3) The ratio of DPM in the aqueous phase aliquot (total inositol phosphates) to the DPM in the 50 μl organic phase aliquot (total [^3 H]inositol incorporated) was calculated for each sample. Data are expressed as a percent of agonist-induced accumulation of [^3 H]-inositol phosphates over basal levels. The ratios in the presence of test compound and/or standards were compared to the ratios for control samples (i.e. no stimulating agonist). Dose-response graphs were constructed and the abilities of the test compounds to inhibit tachykinin-induced phosphatidyinositol turnover determined with the aid of a computer program. […] Data is expressed as percent stimulation of total inositol phosphate accumulation over basal levels and normalized to the maximum response produced by SP. […] Schild analysis is performed using dose response curves (such as those presented in FIGS. 1a and 1b) to obtain a value indicative of the strength of a competitive antagonist and is expressed as the pA2, which is the negative logarithm of the molar concentration of antagonist which reduces the effect of a dose of agonist to one-half of that expected at the dose of agonist.

NK2 receptor = biological target: T2, NK2 receptor (Bos taurus, UniProt P05363); assay: Antagonism of NK2 receptor mediated (NKA-induced) phosphatidylinositol turnover in SKLKB82#3 cells; type: cell-based
T2 construct: expressed in transfected cells; host or cells: SKLKB82#3 cells (murine B82 fibroblasts by own knowledge)
T2 sequence (P05363 1-384): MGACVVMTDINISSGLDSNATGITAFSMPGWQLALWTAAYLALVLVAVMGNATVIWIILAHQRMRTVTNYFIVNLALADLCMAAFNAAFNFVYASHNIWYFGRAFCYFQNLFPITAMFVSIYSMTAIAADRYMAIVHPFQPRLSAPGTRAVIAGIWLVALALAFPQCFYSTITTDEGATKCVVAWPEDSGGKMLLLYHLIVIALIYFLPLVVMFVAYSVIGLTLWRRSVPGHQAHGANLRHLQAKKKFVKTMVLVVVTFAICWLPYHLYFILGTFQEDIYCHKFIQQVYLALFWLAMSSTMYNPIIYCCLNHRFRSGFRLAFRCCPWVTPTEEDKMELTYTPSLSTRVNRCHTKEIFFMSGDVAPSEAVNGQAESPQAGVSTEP
Description: as §1, §2, §3

NK1 receptor [2] = biological target: NK1 receptor (Cavia porcellus, UniProt P30547); assay: Antagonism of SP-induced plasma protein extravasation in guinea pig trachea; type: in vivo; parameters: SP-induced plasma protein extravasation in guinea pig trachea; from tissue; host or cells: living guinea pig; trachea and primary bronchi; conditions: i.v.
NK1 receptor (Cavia porcellus, UniProt P30547), sequence (P30547 whole entry): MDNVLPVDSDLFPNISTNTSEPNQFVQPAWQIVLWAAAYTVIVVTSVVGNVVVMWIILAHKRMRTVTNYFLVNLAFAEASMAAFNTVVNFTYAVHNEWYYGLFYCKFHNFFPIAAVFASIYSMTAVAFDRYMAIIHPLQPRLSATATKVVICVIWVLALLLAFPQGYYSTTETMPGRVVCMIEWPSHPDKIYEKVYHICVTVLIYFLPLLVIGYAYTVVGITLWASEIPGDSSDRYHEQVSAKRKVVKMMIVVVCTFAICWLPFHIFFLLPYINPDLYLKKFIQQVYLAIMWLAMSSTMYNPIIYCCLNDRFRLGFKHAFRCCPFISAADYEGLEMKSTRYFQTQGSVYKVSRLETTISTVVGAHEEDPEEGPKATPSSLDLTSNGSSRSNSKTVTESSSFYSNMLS
Description: ANTAGONISM OF SP-INDUCED PLASMA PROTEIN EXTRAVASATION IN GUINEA PIG TRACHEA
SP-induced protein leakage through postcapillary venules was assessed by measuring Evans Blue dye accumulation in guinea pig trachea. Animals were anesthetized with pentobarbital then injected with Evans Blue dye (20 mg/kg, i.v., prepared in 0.9% NaCl solution). One minute after dye administration, the antagonist was administered (i.v.) followed by SP (0.3 nmole/kg, i.v.) and, after 5 min, excess dye removed from the circulation by transcardiac perfusion with 50 ml 0.9% NaCl solution. The trachea and primary bronchi were removed, blotted dry and weighed. Dye quantitation was performed spectrophotometrically ([…]) after extracting tissues in formamide for 24 hr at 50° C. Values were subtracted from background (dye only, no agonist). ED50 (dose of compound which inhibits SP-induced plasma protein extravasation by 50%) was calculated from linear regression analysis.

T1 sequence (P25103 whole entry): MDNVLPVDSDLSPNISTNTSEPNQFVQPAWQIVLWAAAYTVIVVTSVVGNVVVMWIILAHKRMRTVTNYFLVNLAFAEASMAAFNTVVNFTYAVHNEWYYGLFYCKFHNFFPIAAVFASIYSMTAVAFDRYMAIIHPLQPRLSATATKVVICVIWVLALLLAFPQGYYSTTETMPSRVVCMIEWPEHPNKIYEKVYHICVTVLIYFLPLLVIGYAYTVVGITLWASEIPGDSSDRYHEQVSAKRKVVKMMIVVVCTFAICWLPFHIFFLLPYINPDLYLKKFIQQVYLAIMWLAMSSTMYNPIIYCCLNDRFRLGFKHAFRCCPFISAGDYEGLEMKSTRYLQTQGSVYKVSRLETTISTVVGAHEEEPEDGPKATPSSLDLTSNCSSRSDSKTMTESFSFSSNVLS

SMILES: COc1cc(C(=O)N2CCC(CCN3CCC(C(N)=O)(c4ccccc4)CC3)(c3ccc(Cl)c(Cl)c3)C2)cc(OC)c1OC (stereo not drawn) [Example 3, 1-[2-[3-(3,4-dichloro-phenyl)-1-(3,4,5-trimethoxy-benzoyl)-pyrrolidin-3-yl]-ethyl]-4-phenyl-piperidine-4-carboxylic acid amide]
- antagonism of SP induced PI turnover (in words, FIG. 1a) (NK1 receptor [1]; UC11 cells): dose related antagonism
- agonist activity, PI turnover in UC11 cells (in words) (NK1 receptor [1]; compound alone): no agonist activity
- antagonism of NKA induced PI turnover (in words, FIG. 1b) (NK2 receptor; SKLKB82#3 cells): dose related antagonism
- agonist activity, PI turnover in SKLKB82#3 cells (in words) (NK2 receptor; compound alone): no agonist activity
- antagonism of SP-induced plasma protein extravasation (in words, FIG. 2) (NK1 receptor [2]): dose related antagonism
- relative potency as NK-1 receptor antagonists (in words) (NK1 receptor [2]; Example 3 versus Example 20A): equipotent
